“Also recorded” adds a separate entry of the source.
Columns and labels:
Format in all cases: in vivo
[1] = test system: LPS inhalation induced lung neutrophils infiltration model; test: LPS inhalation induced neutrophils infiltration model in C57BL/6 mice; conditions: Cpd. 4 50 mg/kg oral each day, Cpd. X 50 mg/kg iv twice a week, Cpd. XI 12 mg/kg iv twice a week, week 4-10, compared with Vehicle
Method: C57BL/6 mice (6-8 weeks old) were obtained from Shanghai LC Laboratory Animal Co. Ltd. Animals, housed and handled in a temperature-controlled environment with a 12-h light/12-h dark cycle. A total of 60 female C57BL/6J mice will be modeled by atomization inhalation LPS 3 times a week for 10 weeks (adjustments may be made according to animal health status). LPS concentration is at 0.7 mg/mL. On each day of challenge, animals in G1 will receive aerosol inhalation of PBS and intravenous injection of Vehicle; animals in G2 will receive aerosol inhalation of LPS and intravenous injection of Vehicle; animals in G3 will be given aerosol inhalation of LPS and intravenous injection of 50 mg/kg Cpd. X twice a week (D1/4) from week 4-10; animals in G4 will be given aerosol inhalation of LPS and intravenous injection of 12 mg/kg Cpd.XI twice a week (D1/4) from week 4-10; animals in G5 will be given aerosol inhalation of LPS and oral administration of 50 mg/kg Cpd. 4 each day from week 4-10; animals in G6 will be given aerosol inhalation of LPS and oral administration of dexamethasone 1 hour before each challenge. Lungs will be gently lavaged via the tracheal cannula with 0.8 mL of PBS containing 1% BSA and 0.6 mM EDTA 48 hr after the last LPS exposure. The procedure will be repeated twice with 0.8 mL of PBS containing 1% BSA and 0.6 mM EDTA. The bronchoalveolar lavage fluid (BALF) will be centrifuged at 300×g for 5 min at 4° C., the cell pellet will be resuspended in 1.5 mL PBS. Total numbers of neutrophils in BALF will be counted using a hemocytometer.

[2] = test system: OVA induced asthma model; test: OVA (ovalbumin) induced asthma model in Balb/cA mice
From the text: Ovalbumin (OVA)-sensitized and challenged BALB/c mice are widely used as an asthma model and are characterized by high levels of serum IgE, airway inflammation, epithelial hypertrophy, goblet cell hyperplasia, and AHR, which are similar to the features observed in human allergic asthma.
Female Balb/cA mice (8 weeks old) were obtained from Shanghai Jihui Laboratory Animal Co. Ltd. Animals were housed and handled in a temperature-controlled environment with a 12-h light/12-h dark cycle. A total of 66 mice were assigned to 6 groups by randomization based on body weight.
Mice in Group 2 are intraperitoneally immunized with OVA (25 μg) emulsified in Imject alum (2.0 mg of Al[OH]3) on day 1. During this sensitization phase, the mice produce anti-OVA IgE antibodies, which bind IgE receptors on mast cells. After this sensitization, the mice are intratracheally challenged with OVA from day 8 today 14, resulting in OVA cross-linked IgE on mast cells and leading to degranulating mast cells. Mice then develop clinical features of asthma. The mice in the Group 1 normal control group were sensitized and challenged with […] (without OVA).
Mice in Group 1 and Group 2 were treated with vehicle for 7 days (po, qd, from day 8 to day 14). Mice in Group 3 were treated with 50 mg/kg Cpd. X for 8 days (iv, biw, day 1 and day 4). Mice in Group 4 were treated with 30 mg/kg Cpd. 4 for 7 days (po, qd, from day 8 to day 14). Mice in Group 5 were treated with 100 mg/kg Cpd. 4 for 7 days (po, qd, from day 8 to day 14). 3 mg/kg dexamethasone was used as positive control which was orally administered to mice in Group 6 for 7 days (qd, from day 8 to day 14). The protocols and procedures involving the care and use of animals were approved by the Institutional Animal Care and Use Committee (IACUC) at KCI (Suzhou, China).
Airway responsiveness was determined invasively based on lung resistance.
After challenge with aerosolized methacholine. Briefly, mice were challenged with methacholine aerosol in increasing concentrations (0, 6.25, 12.5, and 25 mg/mL in saline) on day 13 by using the noninvasive pulmonary function instrument. Data on lung resistance were continuously collected, and mean values were selected to express changes in airway function and regarded as one form of inflammation expression. Data are presented as the airway stenosis index (penh).
Twenty-four hours after the final OVA challenge (on day 15), mice were killed, and BAL cells were collected by means of slow injection of ice-cold PBS into the trachea, which was repeated 3 times. Numbers of cells in BAL fluid were counted with a chamber. Number of eosinophils in a total of 100 cells was counted under a microscope. Results are expressed as percentage of eosinophils of BAL fluid.
Twenty-four hours after the final OVA challenge (on day 15), mice were killed, and the serum was collected. The OVA-specific IgE levels were measured with the method of enzyme linked immunosorbent assay (ELISA) according to manufacturer protocol.
Twenty-four hours after the final OVA challenge (on day 15), mice were killed, and the lung tissue samples were collected and fixed in 4% paraformaldehyde. Then, they were embedded in paraffin and cut into […] sections for histopathological analysis. Lung sections were then stained with hematoxylin and eosin (H&E) to calculate the inflammatory changes. The histopathological score was evaluated microscopically in a blinded manner. Five arbitrarily selected fields of each mouse were photographed with an optical microscope and the images were determined and analyzed in detail. […]

[3] = test system: IMQ induced psoriasis model; test: IMQ induced psoriasis model in Balb/c mice; conditions: Cpd. 4 100 mg/kg po qd day 0-6; tofacitinib 30 mg/kg po bid; compared with Vehicle
From the text: Imiquimod (IMQ) is a ligand for TLRs (Toll-like receptors) of immune cells (including macrophages, monocytes and plasmacytoid dendritic cells), and therefore contributes to strong activation of the immune system.
Female Balb/c mice (7-8 weeks old) were obtained from B&K Universal Animal Co. Ltd. Animals were housed and handled in a temperature-controlled environment with a 12-h light/12-h dark cycle. A total of 36 mice were assigned to 4 groups by randomization based on body weight (6 mice in normal control group and 10 mice in other 3 groups).
At the beginning of the study on day 0, five groups were administered a daily topical dose of 80 mg of a cream preparation containing 5% IMQ on their hair-free backs to establish a model of IMQ-induced psoriasis for seven consecutive days. The G1 normal control group received appropriate vaseline.
Mice in Group 1 and Group 2 were treated with vehicle for 7 days (po, qd, from day 0 to day 6). Mice in Group 3 were treated with 100 mg/kg Cpd. 4 for 7 days (po, qd, from day 0 to day 6). Mice in Group 4 were treated with 30 mg/kg tofacitinib for 7 days (po, bid, from day 0 to day 6). The protocols and procedures involving the care and use of animals were approved by the Institutional Animal Care and Use Committee (IACUC) at KCI (Suzhou, China).
The severity of skin inflammation was monitored and graded using a modified human scoring system Psoriasis Area Severity Index (PASI). Scaling, thickness, and erythema were scored separately on a scale from 0 to 4:0, none; 1, slight; 2, moderate; 3, marked; and 4, very marked. The total score denotes severity of inflammation. Ear thickness of mice was measured every day from day 0 to day 7.
Ear thickness of mice was measured every day from day 0 to day 7. […] Compared with G1 normal control group, after IMQ treatment, ear swelling was observed indicated by increased ear thickness in G2 group reaching the maximal ear thickness to 0.40±0.02 mm on day 7. Cpd.

[4] = test system: TNBS induced inflammatory bowel disease (IBD) model; test: TNBS induced inflammatory bowel disease (IBD) model in Balb/c mice; conditions: 50 mg/kg po qd, mesalamine day −1 to day 6, compared with Vehicle
From the text: There are two kinds of IBD: Crohn's disease (CD) and ulcerative colitis (UC). TNBS administration results in a preclinical mouse model replicating clinical Crohn's disease.
Female Balb/c mice (8 weeks old) were obtained from Beijing Vital River Laboratory Animal Co. Ltd. Animals were housed and handled in a temperature-controlled environment with a 12-h light/12-h dark cycle. A total of 50 mice were assigned to 5 groups by randomization based on body weight.
On Day 0, the mice weighing 18-20 g were anesthetized with […] (Easycheck, M2910). The mice were further intra-rectally injected 100 μL 1.5% TNBS solution (final concentration 50% ethanol) in the vehicle group and other treatment groups. For the Sham group, the mice were intra-rectally injected with 50% ethanol at the same volume.
Mice in Group 1 and Group 2 were treated with vehicle for 8 days (po, qd, from day −1 to day 6). Mice in Group 3 were treated with 50 mg/kg Cpd. 4 for 8 days (preventive regimen, po, qd, from day −1 to day 6). Mice in Group 4 were treated with 50 mg/kg Cpd. 4 for 6 days (therapeutic regimen, po, qd, from day 1 to day 6). 50 mg/kg Mesalamine was used as positive control which was orally administered to mice in Group 5 for 8 days (preventive regimen, qd, from day −1 to day 6). The protocols and procedures involving the care and use of animals were approved by the Institutional Animal Care and Use Committee (IACUC) at WuxiApptec (Shanghai, China).
Clinical signs of IBD were assessed every day based on the score of disease activity index (DAI) which was evaluated from three parameters using a scoring system from 0 to 4: stool consistency (0, normal stool; 1, soft but still formed stool; 2, soft and not formed stool; 3, very soft and wet stool; 4, watery diarrhea), bleeding score (0, negative hemoccult; 1, weak positive hemoccult; 2, positive hemoccult; 3, blood trace in stool visible; 4, gross rectal bleeding) and body weight loss (0, no body weight loos; 1, 1-5% body weight loss; 2, 6-10% body weight loss; 3, 11-20% body weight loss; 4, >20% body weight loss).
At the end of induction with TNBS (day 7), the animals were euthanized, dissected and the entire colon was quickly removed and gently cleared of feces.
The entire colon was weighed, and the total length was measured. Colon weight gain and shortening is an indirect marker of inflammation. As expected, colon weight induced by TNBS increased to 336.8±25.15 mg. […] The TNBS-induced colon weight increasement were improved by Cpd. 4 treatment (202.4±3.95 mg for 50 mg/kg Cpd. 4 preventive therapy and 214.4±5.17 mg for 50 mg/kg Cpd. 4 therapeutic therapy) (FIG. 2).
At the end of induction with TNBS, the animals were euthanized, and blood was collected immediately by the heart punctures and used for whole blood cell analysis.
At the end of the study (day 7), the cell suspensions from sham control, model control and Cpd. 4 therapeutic treatment groups were obtained from mesenteric lymph nodes (MLN). Cells were stained with the following florescence-labelled antibodies: APC-Cy7-conjugated anti-mouse CD45, BV510-conjugated anti-mouse CD3e, AF700-conjugated anti-mouse CD8a, BUV395-conjugated anti-mouse CD4, BV421-conjugated anti-mouse CD25, FITC-conjugated anti-mouse Foxp3, BV650-conjugated anti-mouse IFN-γ, BV786-conjugated anti-mouse IL-17A, BB700-conjugated anti-mouse TNF-α, APC-conjugated anti-mouse B220, BV395-conjugated anti-mouse CD3e, BV605-conjugated anti-mouse CD11b, BB700-conjugated anti-mouse CD11c, AF488-conjugated anti-mouse MHCII, BV421-conjugated anti-mouse NK1.1, BV510-conjugated anti-mouse Ly6G, PE-Cy7-conjugated anti-mouse CD107a and PE-CF594-conjugated anti-mouse F4/80. All cells were primarily gated on single and live lymphocytes based on forward scatter (FCS), side scatter (SSC) and live/dead staining buffer. Samples were analyzed on a flow cytometer (BD LSRFortessa) to count the percentage of each subtype of lymphocytes. […]

[5] = day 15, Cpd. 4 30 and 100 mg/kg po qd, Cpd. X 50 mg/kg iv biw, dexamethasone 3 mg/kg po qd, compared with Vehicle
[6] = Cpd. 4 preventive and therapeutic

## Cc1c(S(C)(=O)=O)c(-c2cc(F)cc(N3CCN(c4ccc(NS(=O)(=O)c5ccc(N[C@H](CCN6CCC(C(=O)O)CC6)CSc6ccccc6)c(S(=O)(=O)C(F)(F)F)c5)cc4)CC3)c2)c(-c2ccc(Cl)cc2)n1C(C)C [Cpd. XI]
[1]
  BALF neutrophils (infiltration in lung): significantly reduced
[1]; listed as Cpd.XI
  BALF neutrophils (infiltration in lung): significantly reducing the BALF neutrophils

## Cc1c(S(C)(=O)=O)c(-c2cc(F)cc(N3CCN(c4ccc(NS(=O)(=O)c5ccc(N[C@H](CCN6CCC(C(=O)OCCCP(=O)(O)O)CC6)CSc6ccccc6)c(S(=O)(=O)C(F)(F)F)c5)cc4)CC3)c2)c(-c2ccc(Cl)cc2)n1C(C)C [Cpd. X]
[2]; 50 mg/kg iv biw, day 15, vehicle 4.08±0.23
  pathological score in lung tissues (H&E): 2.58±0.15
[2]; Cpd. 4 and Cpd. X, compared with Vehicle
  pathological score in lung tissues (in words): significantly ameliorated
[2]; [5]
  percentage of eosinophils in BALF: downregulated markedly; also recorded: significantly downregulated
  serum OVA-specific IgE (ELISA): significantly reduced
[2]; methacholine challenge day 13, Cpd. 4 30 and 100 mg/kg po qd day 8-14, Cpd. X 50 mg/kg iv biw, dexamethasone 3 mg/kg po qd, compared with Vehicle
  airway stenosis index (penh), airway hyper-responsiveness (AHR): significant inhibitory activity; also recorded: significantly reduced
[1]
  BALF neutrophils (infiltration in lung): significantly reducing the BALF neutrophils; also recorded: significantly reduced

## C[C@@H]1CCN(C(=O)CC#N)C[C@@H]1N(C)c1ncnc2[nH]ccc12 [tofacitinib, reference compound]
[3]
  PASI score (Psoriasis Area Severity Index): significantly lower PASI

## Nc1ccc(O)c(C(=O)O)c1 [mesalamine, Mesalamine, reference compound]
[4]; Cpd. 4 preventive (day −1 to day 6) and therapeutic (day 1 to day 6) regimens
  disease activity index (DAI), clinical score of IBD: significantly lowered DAI
[4]; [6]
  colon length (in words): significantly increased the colon length
  colon weight (in words): significantly reduced the colon weight

From US20250152580A1, “METHODS FOR TREATING IMMUNE DISEASES” (Ascentage Pharma (Suzhou) co., Ltd., priority 2022, published 2025)
